Data reported in ChEMBL document CHEMBL5241075, “Advancement of chimeric hybrid drugs to cure malaria infection: An overview with special emphasis on endoperoxide pharmacophores” (Eur J Med Chem, 2021).
Activity calls are given as the source filed them. The rule behind the calls is not given here.

Legend:
[1] = system: Plasmodium berghei; experiment: Antiplasmodial activity against Plasmodium berghei N infected in po dosed mouse assessed as reduction in parasitemia; format: functional
[2] = system: Plasmodium berghei; experiment: Antiplasmodial activity against Plasmodium berghei N infected in sc dosed mouse assessed as reduction in parasitemia; format: functional
[3] = system: Plasmodium falciparum; experiment: Antiplasmodial activity against Plasmodium falciparum NF54; format: functional, organism-based
[4] = system: Human immunodeficiency virus; experiment: Antiviral activity against HIV; format: functional, organism-based; details: Human immunodeficiency virus 1
[5] = system: Plasmodium falciparum; experiment: Antiplasmodial activity against Plasmodium falciparum W2; format: functional, organism-based
[6] = system: Plasmodium falciparum; experiment: Antiplasmodial activity against Plasmodium falciparum D6; format: functional, organism-based
[7] = system: Plasmodium falciparum; experiment: Antiplasmodial activity against Plasmodium falciparum 3D7; format: functional, organism-based
[8] = system: Plasmodium falciparum; experiment: Antiplasmodial activity against Plasmodium falciparum D10; format: functional, organism-based; details: Plasmodium falciparum, D10
[9] = system: Hemozoin; experiment: Inhibition of Beta-hematin in Plasmodium falciparum
[10] = system: Plasmodium yoelii nigeriensis; experiment: Antiplasmodial activity against Plasmodium yoelii nigeriensis infected in po dosed mouse assessed as reduction in parasitemia; format: functional; details: for ED50 / ED90: Plasmodium yoelii
[11] = system: Plasmodium yoelii nigeriensis; experiment: Antiplasmodial activity against Plasmodium yoelii nigeriensis infected in sc dosed mouse assessed as reduction in parasitemia; format: functional; details: for ED50 / ED90: Plasmodium yoelii
[12] = system: Plasmodium falciparum; experiment: Antimalarial activity against chloroquine resistant Plasmodium falciparum FcM29 Cameron; format: functional, organism-based
[13] = system: Plasmodium falciparum; experiment: Antimalarial activity against chloroquine sensitive Plasmodium falciparum D6; format: functional, organism-based
[14] = system: Plasmodium falciparum; experiment: Antiplasmodial activity against Plasmodium falciparum TM91C235; format: functional, organism-based
[15] = system: Plasmodium berghei; experiment: Antiplasmodial activity against Plasmodium berghei infected in mouse assessed as reduction in parasitemia at 6.8 mg/kg in presence of mefloquine relative to control; format: functional; parameters: scale not given: the % may be the effect or the level left
[16] = system: Plasmodium berghei; experiment: Antiplasmodial activity against Plasmodium berghei infected in mouse assessed as reduction in parasitemia at 13 mg/kg in presence of mefloquine relative to control; format: functional; parameters: scale not given: the % may be the effect or the level left
[17] = system: Plasmodium falciparum; experiment: Antimalarial activity against chloroquine resistant Plasmodium falciparum FcB1; format: functional, organism-based
[18] = system: Plasmodium falciparum; experiment: Antiplasmodial activity against Plasmodium falciparum F-32; format: functional, organism-based
[19] = system: Plasmodium falciparum; experiment: Antiplasmodial activity against Plasmodium falciparum FcM29; format: functional, organism-based
[20] = system: Plasmodium falciparum; experiment: Antiplasmodial activity against Plasmodium falciparum Nigerian; format: functional, organism-based
[21] = system: Plasmodium vinckei; experiment: Antimalarial activity against Plasmodium vinckei infected in ip dosed mouse assessed as reduction in parasitemia relative to control; format: functional; parameters: scale not given: the % may be the effect or the level left
[22] = system: Plasmodium vinckei; experiment: Antimalarial activity against Plasmodium vinckei infected in po dosed mouse assessed as reduction in parasitemia relative to control; format: functional; parameters: scale not given: the % may be the effect or the level left
[23] = system: Plasmodium vinckei; experiment: Antimalarial activity against Plasmodium vinckei infected in ip dosed mouse assessed as reduction in parasitemia; format: functional
[24] = system: Plasmodium vinckei; experiment: Antimalarial activity against Plasmodium vinckei infected in po dosed mouse assessed as reduction in parasitemia; format: functional
[25] = system: Plasmodium yoelii; experiment: Antimalarial activity against Plasmodium yoelii infected in swiss mouse assessed as reduction in parasitemia at 96 mg/kg, po relative to control; format: functional; parameters: scale not given: the % may be the effect or the level left
[26] = system: Plasmodium berghei; experiment: Antimalarial activity against Plasmodium berghei KBG 173 infected in ICR mouse assessed as animal survival at 320 mg/kg/day, po qd administered 3 to 5 days post infection; format: functional, organism-based; details: time 3-5 day
[27] = system: Plasmodium berghei; experiment: Antimalarial activity against Plasmodium berghei KBG 173 infected in ICR mouse assessed as animal survival at 80 mg/kg/day, po qd administered 3 to 5 days post infection; format: functional, organism-based; details: time 3-5 day
[28] = system: Plasmodium berghei; experiment: Antimalarial activity against Plasmodium berghei KBG 173 infected in ICR mouse assessed as animal survival at 20 mg/kg/day, po qd administered 3 to 5 days post infection; format: functional, organism-based; details: time 3-5 day
[29] = system: Plasmodium berghei; experiment: Antimalarial activity against Plasmodium berghei KBG 173 infected in ICR mouse assessed as survival time at 320 mg/kg/day, po qd administered 3 to 5 days post infection; format: functional; details: time 3-5 day
[30] = system: Plasmodium berghei; experiment: Antimalarial activity against Plasmodium berghei KBG 173 infected in ICR mouse assessed as survival time at 80 mg/kg/day, po qd administered 3 to 5 days post infection; format: functional; details: time 3-5 day
[31] = system: Plasmodium berghei; experiment: Antimalarial activity against Plasmodium berghei KBG 173 infected in ICR mouse assessed as survival time at 20 mg/kg/day, po qd administered 3 to 5 days post infection; format: functional; details: time 3-5 day
[32] = system: Plasmodium berghei; experiment: Antimalarial activity against Plasmodium berghei infected in mouse assessed as reduction in parasitemia; format: functional
[33] = system: Plasmodium yoelii; experiment: Antimalarial activity against Plasmodium yoelii infected in mouse assessed as reduction in parasitemia; format: functional
[34] = system: Plasmodium falciparum; experiment: Antiplasmodial activity against Plasmodium falciparum; format: functional, organism-based
[35] = Lipophilicity, logP of compound; format: physicochemical; details: octanol/water
[36] = system: Plasmodium falciparum; experiment: Antiplasmodial activity against Plasmodium falciparum K1; format: functional, organism-based; details: Plasmodium falciparum, K1
[37] = system: Plasmodium falciparum; experiment: Selectivity ratio of IC50 for antiplasmodial activity against Plasmodium falciparum W2 to IC50 for antiplasmodial activity against Plasmodium falciparum D6; format: functional

Structure (SMILES): Cc1ccc(C2O[C@@H]3O[C@]4(C)CC[C@H]5[C@H](C)CC[C@@H]([C@H]2C)[C@@]35OO4)o1 (stereo not given in full)
- ED50 [1]: 15.5 mg/kg
- ED50 [2]: 0.9 mg/kg
- IC50 [3]: 5.2 nM

Structure (SMILES): Cc1cn([C@H]2C[C@H](N=[N+]=[N-])[C@@H](CO[C@H]3OC4O[C@]5(C)CC[C@H]6[C@H](C)CC[C@@H]([C@H]3C)[C@@]46OO5)O2)c(=O)[nH]c1=O (stereo not given in full)
- IC50 [4]: 2860 nM

Structure (SMILES): C[C@@H]1CC[C@H]2[C@@H](C)C(=O)O[C@@H]3O[C@@]4(C)CC[C@@H]1[C@]32OO4 [ARTEMISININ]
- IC50 [5]: 6.7 nM
- IC90 [5]: 11.5 nM
- IC50 [6]: 9 nM
- IC90 [6]: 12.8 nM
- IC50 [7]: 5.32 nM
- IC50 [8]: 23 nM
- IC50 [9]: 0.66 equiv
- CD50 [10]: 75 mg/kg/day
- CD90 [10]: >100 mg/kg/day
- ED50 [10]: 16 mg/kg/day
- ED90 [10]: 27 mg/kg/day
- CD50 [11]: 3 mg/kg/day
- CD90 [11]: 5 mg/kg/day
- ED50 [11]: 3 mg/kg/day
- ED90 [11]: 5 mg/kg/day
- IC50 [12]: 7 nM
- IC50 [13]: 8 nM
- IC50 [14]: 13 nM
- IC90 [14]: 17.4 nM

Structure (SMILES): C[C@@H]1CC[C@H]2[C@@H](C)C(CCC(=O)Nc3ccc(F)cc3)O[C@@H]3O[C@]4(C)CC[C@@H]1[C@]32OO4 (stereo not given in full)
- Activity [15]: 99%
- Activity [16]: 99.6%

Structure (SMILES): CC(C)C1=C[C@H]2OC3(CCC(NCCNc4cc(Cl)cc5cccnc45)CC3)OO[C@@]2(C)CC1.O=C(O)CC(O)(CC(=O)O)C(=O)O.O=C(O)CC(O)(CC(=O)O)C(=O)O (stereo not given in full)
- CD50 [10]: 22 mg/kg/day
- CD90 [10]: 44 mg/kg/day
- ED50 [10]: 15 mg/kg/day
- ED90 [10]: 23 mg/kg/day
- IC50 [17]: 4 nM
- CD50 [11]: 3 mg/kg/day
- CD90 [11]: 12 mg/kg/day
- ED50 [11]: 2 mg/kg/day
- ED90 [11]: 5 mg/kg/day
- IC50 [18]: 4 nM
- IC50 [19]: 4 nM
- IC50 [20]: 4 nM
- Activity [21]: 50%
- Activity [22]: 50%
- ED50 [23]: 5 mg/kg/day
- ED50 [24]: 18 mg/kg/day

Structure (SMILES): C=C(c1ccccc1)C1COC2(CCC(NCCCCNc3ccnc4cc(Cl)ccc34)CC2)OO1 (stereo not given)
- Activity [25]: 89%

Structure (SMILES): Clc1ccc2c(NCCNCC3CCC4(CC3)OOC3(CCCCC3)OO4)ccnc2c1
- Activity [26]: Active
- Activity [27]: Active
- Activity [28]: inactive
- Time [29]: >31 days
- Time [30]: 26.4 days
- Time [31]: 15.8 days

Structure (SMILES): C[C@@H]1CC[C@H]2[C@@H](C)C(N3CCS(=O)(=O)CC3)O[C@@H]3O[C@]4(C)CC[C@@H]1[C@]32OO4 (stereo not given in full)
- ED50 [32]: 1.5 mg/kg
- ED50 [33]: 3.9 mg/kg
- EC50 [34]: 0.14 nM
- EC90 [34]: 2.55 nM
- logP [35]: 2.49

Structure (SMILES): C[C@@H]1CC[C@H]2[C@@H](C)C(CCN3CCN(c4ccc(C(F)(F)F)cc4)CC3)O[C@@H]3O[C@]4(C)CC[C@@H]1[C@]32OO4 (stereo not given in full)
- ED50 ([32]; Plasmodium berghei): 6 mg/kg
- IC50 [36]: 6.19 nM

Structure (SMILES): O=C(NCCNc1ccnc2cc(Cl)ccc12)C1CCC2(CC1)OOC1(CCCCC1)OO2
- IC90 [14]: 3.78 nM
- Activity [26]: Active
- Activity [27]: Active
- Activity [28]: inactive
- Time [29]: >31 days
- Time [30]: 26.2 days
- Time [31]: 14.2 days

Structure (SMILES): Cc1cccc(C)c1Nc1nc(OCc2cn(CCNc3ccnc4cc(Cl)ccc34)nn2)nc(N(C)C)n1
- IC50 [5]: 1690 nM
- IC50 [6]: 980 nM
- Ratio IC50 [37]: >5.6
